This passage reports IC50 results from EP0401963A1, “Phosphonopeptides with collagenase inhibiting activity” (Beecham Group p.l.c., priority 1989, dated 1990).

The assay deals with human lung fibroblast collagenase. Nature of the assay: Collagenase inhibitor assay (human lung fibroblast collagenase, 14C-acetylated Type I collagen fibril degradation). The class given is biochemical. As to conditions: Inhibition of human lung fibroblast collagenase (purified from WI-38 culture supernatants); 14C-acetylated rat skin Type I collagen substrate; 37°C overnight; read-out: IC₅₀. The protocol:
The assay tubes are incubated at 37 °C overnight.
As to `CC[C@H](N[C@@H](CC(C)C)C(=O)NC1CCCCCCCCCCNC1=O)P(=O)(O)O` (single isomer, unassigned) [Example E4], the IC50 was found to be 166 nM.

As for `CCCCC(N[C@@H](CC(C)C)C(=O)NC1CCCCCCCCCCNC1=O)P(=O)(O)O` (stereo partly drawn) [Example E8, 3-[N-[N-(1-Phosphonopentyl)-(S)-leucyl]]-(-)-aminoazacyclotridecan-2-one], the IC50 turned out to be 9490 nM.

As for `CC[C@@H](N[C@@H](CC(C)C)C(=O)NC1CCCCCCCCCCNC1=O)P(=O)(O)O` (single isomer, unassigned) [Example E3C], the IC50 came to 45 nM.
